In this assay the target is T1, Trx-6×His-BCL6 (human BCL6 BTB domain covering amino-acid sequence 5-129) (Homo sapiens, UniProt P41182).
T1 construct: made in house
Nature of the assay: HTRF assay (BCL6 / BCOR peptide). As to conditions: 1 nM Trx-6×His-BCL6, 300 nM BCOR-AF633 peptide, 2 hours incubation at room temperature; for IC50: read-out: HTRF avg pIC50 (converted). It counts as binding. As to the method:
After 2 hours incubation at room temperature the plate was read on a Pherastar FSX (BMG Labtech) plate reader equipped with 337 nm laser excitation filter, a first emission filter at 620 nm and a second emission filter at 665 nm. The % inhibition at each concentration was calculated by normalising FRET ratio to the appropriate high (DMSO with all reagents) and low (DMSO without BCL6) controls.
A general note: TR-FRET usually uses a lanthanide donor and a delayed reading to cut background.

This note sets out measurements from patent US12528826B2, “[1,4]oxazepino[2,3-c]quinolinone derivatives as BCL6 inhibitors” (Cancer Research Technology Limited, priority 2019, dated 2026).

As to `Cn1c(=O)c2c(c3cc(Nc4nc(N5CC6CCC(C5)N6CC5CC5(F)F)ncc4Cl)ccc31)N[C@@H](C1CC1)C(F)(F)CO2` (stereo partly drawn) [Example 9za, (2S)-10-((5-chloro-2-(8-((2,2-difluorocyclopropyl)methyl)-3,8-diazabicyclo[3.2.1]octan-3-yl)pyrimidin-4-yl)amino)-2-cyclopropyl-3,3-difluoro-7-methyl-1,2,3,4-tetrahydro-[1,4]oxazepino[2,3-c]quinolin-6(7H)-one], the IC50 is 7.59 nM.
Same read-out and setting: under `C[C@@H]1C[C@@H](O)CN(c2ncc(Cl)c(Nc3ccc4c(c3)c3c(c(=O)n4C)OCC(F)(F)[C@H](C4CC4)N3)n2)C1` [Example 9zb, (S)-10-((5-chloro-2-((3R,5R)-3-hydroxy-5-methylpiperidin-1-yl)pyrimidin-4-yl)amino)-2-cyclopropyl-3,3-difluoro-7-methyl-1,2,3,4-tetrahydro-[1,4]oxazepino[2,3-c]quinolin-6(7H)-one] stands 9.77 nM; under `CN1CCCN(c2ncc(Cl)c(Nc3ccc4c(c3)c3c(c(=O)n4C)OCC(F)(F)[C@H](C4CC4)N3)n2)CC1` [Example 11a, (2S)-10-[[5-chloro-2-(4-methyl-1,4-diazepan-1-yl)pyrimidin-4-yl]amino]-2-cyclopropyl-3,3-difluoro-7-methyl-2,4-dihydro-1H-[1,4]oxazepino[2,3-c]quinolin-6-one], 2.75 nM.
On the same count and under the same terms, under `Cn1c(=O)c2c(c3cc(Nc4nc(N5C[C@H](O)C[C@H](O)C5)ncc4Cl)ccc31)N[C@@H](C1CC1)C(F)(F)CO2` [Example 11e, (S)-10-((5-chloro-2-((3R,5S)-3,5-dihydroxypiperidin-1-yl)pyrimidin-4-yl)amino)-2-cyclopropyl-3,3-difluoro-7-methyl-1,2,3,4-tetrahydro-[1,4]oxazepino[2,3-c]quinolin-6(7H)-one] stands 0.871 nM.
The same measure, in the same setting: the result for `CCCN(C)c1ncc(Cl)c(Nc2ccc3c(c2)c2c(c(=O)n3C)OCC(F)(F)[C@H](C3CC3)N2)n1` [Example 11i, (S)-10-((5-chloro-2-(methyl(propyl)amino)pyrimidin-4-yl)amino)-2-cyclopropyl-3,3-difluoro-7-methyl-1,2,3,4-tetrahydro-[1,4]oxazepino[2,3-c]quinolin-6(7H)-one] reads 30.9 nM; that for `CCCN(CCO)c1ncc(Cl)c(Nc2ccc3c(c2)c2c(c(=O)n3C)OCC(F)(F)[C@H](C3CC3)N2)n1` [Example 11k, (S)-10-((5-chloro-2-((2-hydroxyethyl)(propyl)amino)pyrimidin-4-yl)amino)-2-cyclopropyl-3,3-difluoro-7-methyl-1,2,3,4-tetrahydro-[1,4]oxazepino[2,3-c]quinolin-6(7H)-one], 9.77 nM; that for `Cn1c(=O)c2c(c3cc(Nc4nc(N5CCCC6(CC6)C5)ncc4Cl)ccc31)N[C@@H](C1CC1)C(F)(F)CO2` [Example 11l, (S)-10-((5-chloro-2-(5-azaspiro[2.5]octan-5-yl)pyrimidin-4-yl)amino)-2-cyclopropyl-3,3-difluoro-7-methyl-1,2,3,4-tetrahydro-[1,4]oxazepino[2,3-c]quinolin-6(7H)-one], 44.7 nM.
`Cn1c(=O)c2c(c3cc(Nc4nc(N5CC(C)(C)C5)ncc4Cl)ccc31)N[C@@H](C1CC1)C(F)(F)CO2` [Example 11n, (S)-10-((5-chloro-2-(3,3-dimethylazetidin-1-yl)pyrimidin-4-yl)amino)-2-cyclopropyl-3,3-difluoro-7-methyl-1,2,3,4-tetrahydro-[1,4]oxazepino[2,3-c]quinolin-6(7H)-one]: the IC50 was 14.8 nM.
Still for that read-out and setting: under `CC1CN(c2ncc(Cl)c(Nc3ccc4c(c3)c3c(c(=O)n4C)OCC(F)(F)[C@H](C4CC4)N3)n2)C1` [Example 11o, (S)-10-((5-chloro-2-(3-methylazetidin-1-yl)pyrimidin-4-yl)amino)-2-cyclopropyl-3,3-difluoro-7-methyl-1,2,3,4-tetrahydro-[1,4]oxazepino[2,3-c]quinolin-6(7H)-one] stands 7.59 nM; under `Cn1c(=O)c2c(c3cc(Nc4nc(N5CC(C#N)C5)ncc4Cl)ccc31)N[C@@H](C1CC1)C(F)(F)CO2` [Example 11p, (S)-1-(5-chloro-4-((2-cyclopropyl-3,3-difluoro-7-methyl-6-oxo-1,2,3,4,6,7-hexahydro-[1,4]oxazepino[2,3-c]quinolin-10-yl)amino)pyrimidin-2-yl)azetidine-3-carbonitrile], 4.07 nM.
The same measure, in the same setting: under `Cn1c(=O)c2c(c3cc(Nc4nc(N5CC(F)C5)ncc4Cl)ccc31)N[C@@H](C1CC1)C(F)(F)CO2` [Example 11q, (S)-10-((5-chloro-2-(3-fluoroazetidin-1-yl)pyrimidin-4-yl)amino)-2-cyclopropyl-3,3-difluoro-7-methyl-1,2,3,4-tetrahydro-[1,4]oxazepino[2,3-c]quinolin-6(7H)-one] stands 4.79 nM; under `Cn1c(=O)c2c(c3cc(Nc4nc(N5CC(C)(C#N)C5)ncc4Cl)ccc31)N[C@@H](C1CC1)C(F)(F)CO2` [Example 11s, (S)-1-(5-chloro-4-((2-cyclopropyl-3,3-difluoro-7-methyl-6-oxo-1,2,3,4,6,7-hexahydro-[1,4]oxazepino[2,3-c]quinolin-10-yl)amino)pyrimidin-2-yl)-3-methylazetidine-3-carbonitrile], 3.89 nM.
The same measure, in the same setting: the result for `Cn1c(=O)c2c(c3cc(Nc4nc(N5CC(CC#N)C5)ncc4Cl)ccc31)N[C@@H](C1CC1)C(F)(F)CO2` [Example 11t, (S)-2-(1-(5-chloro-4-((2-cyclopropyl-3,3-difluoro-7-methyl-6-oxo-1,2,3,4,6,7-hexahydro-[1,4]oxazepino[2,3-c]quinolin-10-yl)amino)pyrimidin-2-yl)azetidin-3-yl)acetonitrile] reads 3.47 nM; that for `Cn1c(=O)c2c(c3cc(Nc4nc(N5CC(C(F)F)C5)ncc4Cl)ccc31)N[C@@H](C1CC1)C(F)(F)CO2` [Example 11u, (S)-10-((5-chloro-2-(3-(difluoromethyl)azetidin-1-yl)pyrimidin-4-yl)amino)-2-cyclopropyl-3,3-difluoro-7-methyl-1,2,3,4-tetrahydro-[1,4]oxazepino[2,3-c]quinolin-6(7H)-one], 11.5 nM; that for `Cn1c(=O)c2c(c3cc(Nc4nc(N5CCC5)ncc4Cl)ccc31)N[C@@H](C1CC1)C(F)(F)CO2` [Example 11v, (S)-10-((2-(azetidin-1-yl)-5-chloropyrimidin-4-yl)amino)-2-cyclopropyl-3,3-difluoro-7-methyl-1,2,3,4-tetrahydro-[1,4]oxazepino[2,3-c]quinolin-6(7H)-one], 5.37 nM.
With `COC1CN(c2ncc(Cl)c(Nc3ccc4c(c3)c3c(c(=O)n4C)OCC(F)(F)[C@H](C4CC4)N3)n2)C1` [Example 11w, (S)-10-((5-chloro-2-(3-methoxyazetidin-1-yl)pyrimidin-4-yl)amino)-2-cyclopropyl-3,3-difluoro-7-methyl-1,2,3,4-tetrahydro-[1,4]oxazepino[2,3-c]quinolin-6(7H)-one], the “HTRF avg pIC50” value came to 8.43.
Take `COC1(C)CN(c2ncc(Cl)c(Nc3ccc4c(c3)c3c(c(=O)n4C)OCC(F)(F)[C@H](C4CC4)N3)n2)C1` [Example 11x, (S)-10-((5-chloro-2-(3-methoxy-3-methylazetidin-1-yl)pyrimidin-4-yl)amino)-2-cyclopropyl-3,3-difluoro-7-methyl-1,2,3,4-tetrahydro-[1,4]oxazepino[2,3-c]quinolin-6(7H)-one]: the IC50 was 3.55 nM.
On the same count and under the same terms, under `C[C@@H]1C[C@H](N)CN(c2ncc(Cl)c(Nc3ccc4c(c3)c3c(c(=O)n4C)OCC(F)(F)[C@H](C4CC4)N3)n2)C1` [Example 12b, (S)-10-((2-((3S,5R)-3-amino-5-methylpiperidin-1-yl)-5-chloropyrimidin-4-yl)amino)-2-cyclopropyl-3,3-difluoro-7-methyl-1,2,3,4-tetrahydro-[1,4]oxazepino[2,3-c]quinolin-6(7H)-one] stands 2.51 nM.
On the same count and under the same terms, under `C[C@H]1C[C@@H](N)CN(c2ncc(Cl)c(Nc3ccc4c(c3)c3c(c(=O)n4C)OCC(F)(F)[C@H](C4CC4)N3)n2)C1` [Example 12c, (S)-10-((2-((3R,5S)-3-amino-5-methylpiperidin-1-yl)-5-chloropyrimidin-4-yl)amino)-2-cyclopropyl-3,3-difluoro-7-methyl-1,2,3,4-tetrahydro-[1,4]oxazepino[2,3-c]quinolin-6(7H)-one] stands 2.95 nM.
On the same count and under the same terms, the result for `Cn1c(=O)c2c(c3cc(Nc4nc(N5CC6CC(C5)O6)ncc4Cl)ccc31)N[C@@H](C1CC1)C(F)(F)CO2` [Example 12d, (2S)-10-((2-(6-oxa-3-azabicyclo[3.1.1]heptan-3-yl)-5-chloropyrimidin-4-yl)amino)-2-cyclopropyl-3,3-difluoro-7-methyl-1,2,3,4-tetrahydro-[1,4]oxazepino[2,3-c]quinolin-6(7H)-one] reads 4.9 nM; that for `C[C@@H]1CN(C)CCN(c2ncc(Cl)c(Nc3ccc4c(c3)c3c(c(=O)n4C)OCC(F)(F)[C@H](C4CC4)N3)n2)C1` [Example 12g, (S)-10-((5-chloro-2-((R)-4,6-dimethyl-1,4-diazepan-1-yl)pyrimidin-4-yl)amino)-2-cyclopropyl-3,3-difluoro-7-methyl-1,2,3,4-tetrahydro-[1,4]oxazepino[2,3-c]quinolin-6(7H)-one:(S)-10-((5-chloro-2-((S)-4,6-dimethyl-1,4-diazepan-1-yl)pyrimidin-4-yl)amino)-2-cyclopropyl-3,3-difluoro-7-methyl-1,2,3,4-tetrahydro-[1,4]oxazepino[2,3-c]quinolin-6(7H)-one (1:1)], 2.63 nM.
For the molecule `C[C@H]1CCN(c2ncc(Cl)c(Nc3ccc4c(c3)c3c(c(=O)n4C)OCC(F)(F)[C@H](C4CC4)N3)n2)C1` [Example 12x01, (S)-10-((5-chloro-2-((S)-3-methylpyrrolidin-1-yl)pyrimidin-4-yl)amino)-2-cyclopropyl-3,3-difluoro-7-methyl-1,2,3,4-tetrahydro-[1,4]oxazepino[2,3-c]quinolin-6(7H)-one], the IC50 was 26.9 nM.
